Values joined by “and” are separate entries in the source; they are usually repeats but may differ in a detail not shown here. Equal entries are not always repeated.
Tested on: pigeon
Assay: Screening experiment with pigeon on the repellency of treated maize seeds (two-bowl choice, treated vs untreated maize)
Assay type: in vivo
Conditions: for Food consumption of untreated maize (U), Day 1 / Food consumption of untreated maize (U), Day 2: untreated bowl beside treated bowl; for Mean food consumption of untreated maize per group and per day, day 0 / Mean food consumption of untreated maize per group and per day, day 1 / Mean food consumption of untreated maize per group and per day, day 3 / Food consumption of untreated maize (U), Mean/group / Food consumption of untreated maize (U), Mean/birds: untreated bowl; for Food consumption of untreated maize (U), Mean/group / Food consumption of treated maize (T), Mean/group: mean of 3 pigeons over Day 0-2; for Food consumption of untreated maize (U), Day 0: untreated bowl (40 g) offered beside treated bowl
Protocol: Screening Experiment with Pigeon on the Repellency of Maize Seeds Treated with Different Thiram and Propineb Formulations
15 singly housed pigeons were acclimated to maize as food source over a couple of days. From day—3 to day—1 they received exclusively untreated maize (40 g/bird). Food consumption was determined (see Table 1 below). All birds accepted maize seed as food. The different groups behaved similarly:
Food was offered in 2 bowls, one with treated, the other with untreated maize. The position of the two bowls was changed from day to day as well as during the day. Food consumption was again measured (see Table 2 below)
Group 1 (Aviary 1 to 3): Thiram 160 g/dt
Group 2 (Aviary 4 to 6): Thiram 80 g/dt
Group 3 (Aviary 7 to 9): Propineb160 g/dt
Group 4 (Aviary 10 to 12):Propineb 80 g/dt

[1] = 80 g/dt group, single pigeon, Day 1
[2] = 80 g/dt group, mean per bird over Day 0-2

| Molecule | Food consumption of untreated maize (U), Day 1 [1] | Food consumption of untreated maize (U), Day 2 (80 g/dt group, single pigeon) | Mean food consumption of untreated maize per group and per day, day 0 (80 g/dt group) | Mean food consumption of untreated maize per group and per day, day 1 (80 g/dt group) | Mean food consumption of untreated maize per group and per day, day 3 (80 g/dt group) | Food consumption of untreated maize (U), Mean/group (80 g/dt group) | Food consumption of untreated maize (U), Mean/birds [2] | Food consumption of untreated maize (U), Day 2 (160 g/dt group, single pigeon) | Mean food consumption of untreated maize per group and per day, day 0 (160 g/dt group) | Mean food consumption of untreated maize per group and per day, day 1 (160 g/dt group) | Mean food consumption of untreated maize per group and per day, day 3 (160 g/dt group) | Food consumption of untreated maize (U), Mean/group (160 g/dt group) | Mean food consumption of treated maize per group and per day, day 0 (maize treated at 80 g/dt) | Mean food consumption of treated maize per group and per day, day 1 (maize treated at 80 g/dt) | Mean food consumption of treated maize per group and per day, day 3 (maize treated at 80 g/dt) | Food consumption of treated maize (T), Mean/group (maize treated at 80 g/dt) | Mean food consumption of treated maize per group and per day, day 0 (maize treated at 160 g/dt) | Mean food consumption of treated maize per group and per day, day 1 (maize treated at 160 g/dt) | Mean food consumption of treated maize per group and per day, day 3 (maize treated at 160 g/dt) | Food consumption of treated maize (T), Mean/group (maize treated at 160 g/dt) | further results |
| --- | --- | --- | --- | --- | --- | --- | --- | --- | --- | --- | --- | --- | --- | --- | --- | --- | --- | --- | --- | --- | --- |
| Propineb | 17.5 g and 23.2 g and 20.6 g | 25.9 g and 27.5 g and 28.6 g | 14.1 g | 20.4 g | 27.3 g | 20.6 g | 20.1 g and 23.6 g and 18.0 g | 26.1 g and 19.9 g and 28.3 g | 22.6 g | 24.8 g | 24.8 g | 24.4 g | 2.8 g | 2.1 g | 0.0 g | 1.7 g | 0.0 g | 0.6 g | 0.0 g | 0.2 g | Food consumption of untreated maize (U), Day 1 (160 g/dt group, single pigeon, Day 1): 24.6 g and 19.5 g and 30.2 g; Food consumption of untreated maize (U), Mean/birds (160 g/dt group, mean per bird over Day 0-2): 24.6 g and 21.3 g and 26.2 g; Food consumption of untreated maize (U), Day 0 (160 g/dt seed treatment group, single pigeon (aviary), Day 0): 23.1 g and 24.6 g and 20.0 g; Bird repellent activity compared with Thiram (compared at the registered rate of Thiram, pigeon, treated maize seed): substantially better activity than Thiram; Food consumption of treated maize (T), Day 1 (maize treated at 80 g/dt, choice with untreated, single pigeon, Day 1): 2.9 g and 1.7 g and 1.8 g; Food consumption of treated maize (T), Day 2 (maize treated at 80 g/dt, choice with untreated, single pigeon): 0.0 g; Food consumption of treated maize (T), Day 0 (maize treated at 160 g/dt, 40 g offered beside 40 g untreated, single pigeon (aviary), Day 0): 0.0 g; Food consumption of treated maize (T), Day 2 (maize treated at 160 g/dt, choice with untreated, single pigeon): 0.0 g |
| CN(C)C(=S)SSC(=S)N(C)C [Thiram, reference compound] | 11.8 g and 18.4 g and 18.2 g | 14.5 g and 19.3 g and 19.7 g | 16.4 g | 16.1 g | 17.8 g | 16.8 g | 13.6 g and 17.8 g and 18.9 g | 14.5 g and 23.4 g and 23.0 g | 16.9 g | 18.5 g | 20.3 g | 18.6 g | 0.9 g | 0.2 g | 1.1 g | 0.7 g | 6.0 g | 5.3 g | 2.8 g | 4.6 g | Food consumption of untreated maize (U), Day 0 (80 g/dt seed treatment group, single pigeon (aviary), Day 0): 14.4 g and 15.8 g and 18.9 g; Food consumption of treated maize (T), Mean/birds (maize treated at 160 g/dt, mean per bird over Day 0-2): 0.0 g |
